Results taken from ChEMBL document CHEMBL3991601, “The target landscape of clinical kinase drugs” (Science, 2017).
Calls of active or inactive are those of the source. For most assays here, no stated cut-off is given here; in the data, actives have a measured Kd and inactives only a lower limit.

Biological target: T1, Serine/threonine-protein kinase NLK (Homo sapiens, UniProt Q9UBE8)
T1 sequence (Q9UBE8 whole entry): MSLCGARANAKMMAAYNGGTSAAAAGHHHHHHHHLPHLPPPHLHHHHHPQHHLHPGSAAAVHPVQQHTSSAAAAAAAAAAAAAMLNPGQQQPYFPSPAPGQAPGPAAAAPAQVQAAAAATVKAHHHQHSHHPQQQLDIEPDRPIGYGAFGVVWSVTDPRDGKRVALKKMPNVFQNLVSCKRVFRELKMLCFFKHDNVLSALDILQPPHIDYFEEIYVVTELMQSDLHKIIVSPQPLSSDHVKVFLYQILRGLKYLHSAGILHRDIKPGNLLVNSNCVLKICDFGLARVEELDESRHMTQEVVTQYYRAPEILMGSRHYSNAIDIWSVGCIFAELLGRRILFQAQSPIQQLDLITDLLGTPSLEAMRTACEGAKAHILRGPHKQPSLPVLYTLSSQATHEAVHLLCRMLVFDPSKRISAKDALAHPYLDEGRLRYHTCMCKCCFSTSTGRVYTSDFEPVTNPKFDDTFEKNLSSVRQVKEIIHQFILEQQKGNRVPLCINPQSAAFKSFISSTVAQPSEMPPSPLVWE

| Structure (SMILES) | Kd |
| --- | --- |
| CCCS(=O)(=O)Nc1ccc(F)c(C(=O)c2c[nH]c3ncc(-c4ccc(Cl)cc4)cc23)c1F [VEMURAFENIB] | > 30 µM (inactive) |
| CC[C@@H]1C(=O)N(C)c2cnc(Nc3ccc(C(=O)N[C@H]4CC[C@H](N5CCN(CC6CC6)CC5)CC4)cc3OC)nc2N1C(C)C [VOLASERTIB] | > 30 µM (inactive) |
| CCn1c(=O)c(-c2cc[nH]n2)cc2c(C)nc(N)nc21 [VOXTALISIB] | > 30 µM (inactive) |
| O=C(Nc1ccc(-c2ccnc(Nc3ccc(N4CCOCC4)cc3)n2)cc1)C1CCCN1 (stereo not drawn) [XL-019] | 0.027 µM |

Biological target: T2, Activin receptor type-1B (Homo sapiens, UniProt P36896)
T2 sequence (P36896 whole entry): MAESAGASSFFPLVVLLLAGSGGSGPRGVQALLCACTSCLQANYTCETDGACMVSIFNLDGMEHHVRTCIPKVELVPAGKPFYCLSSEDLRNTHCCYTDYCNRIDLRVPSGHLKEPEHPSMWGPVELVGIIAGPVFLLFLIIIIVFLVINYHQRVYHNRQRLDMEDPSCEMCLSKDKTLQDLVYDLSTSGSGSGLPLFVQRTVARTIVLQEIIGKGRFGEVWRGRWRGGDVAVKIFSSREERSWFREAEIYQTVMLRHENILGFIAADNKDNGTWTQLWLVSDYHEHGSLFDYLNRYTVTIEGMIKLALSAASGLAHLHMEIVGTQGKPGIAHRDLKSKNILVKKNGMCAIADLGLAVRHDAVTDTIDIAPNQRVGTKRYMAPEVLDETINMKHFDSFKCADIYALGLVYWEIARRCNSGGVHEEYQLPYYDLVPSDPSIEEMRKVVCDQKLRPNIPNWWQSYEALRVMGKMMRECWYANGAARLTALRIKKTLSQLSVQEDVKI

| Structure (SMILES) | Kd |
| --- | --- |
| CCCS(=O)(=O)Nc1ccc(F)c(C(=O)c2c[nH]c3ncc(-c4ccc(Cl)cc4)cc23)c1F [VEMURAFENIB] | > 30 µM (inactive) |
| CC[C@@H]1C(=O)N(C)c2cnc(Nc3ccc(C(=O)N[C@H]4CC[C@H](N5CCN(CC6CC6)CC5)CC4)cc3OC)nc2N1C(C)C [VOLASERTIB] | > 30 µM (inactive) |
| CCn1c(=O)c(-c2cc[nH]n2)cc2c(C)nc(N)nc21 [VOXTALISIB] | > 30 µM (inactive) |
| O=C(Nc1ccc(-c2ccnc(Nc3ccc(N4CCOCC4)cc3)n2)cc1)C1CCCN1 (stereo not drawn) [XL-019] | > 30 µM (inactive) |

Biological target: Eukaryotic translation initiation factor 2-alpha kinase 1 (Homo sapiens, UniProt Q9BQI3)
Sequence (Q9BQI3 whole entry): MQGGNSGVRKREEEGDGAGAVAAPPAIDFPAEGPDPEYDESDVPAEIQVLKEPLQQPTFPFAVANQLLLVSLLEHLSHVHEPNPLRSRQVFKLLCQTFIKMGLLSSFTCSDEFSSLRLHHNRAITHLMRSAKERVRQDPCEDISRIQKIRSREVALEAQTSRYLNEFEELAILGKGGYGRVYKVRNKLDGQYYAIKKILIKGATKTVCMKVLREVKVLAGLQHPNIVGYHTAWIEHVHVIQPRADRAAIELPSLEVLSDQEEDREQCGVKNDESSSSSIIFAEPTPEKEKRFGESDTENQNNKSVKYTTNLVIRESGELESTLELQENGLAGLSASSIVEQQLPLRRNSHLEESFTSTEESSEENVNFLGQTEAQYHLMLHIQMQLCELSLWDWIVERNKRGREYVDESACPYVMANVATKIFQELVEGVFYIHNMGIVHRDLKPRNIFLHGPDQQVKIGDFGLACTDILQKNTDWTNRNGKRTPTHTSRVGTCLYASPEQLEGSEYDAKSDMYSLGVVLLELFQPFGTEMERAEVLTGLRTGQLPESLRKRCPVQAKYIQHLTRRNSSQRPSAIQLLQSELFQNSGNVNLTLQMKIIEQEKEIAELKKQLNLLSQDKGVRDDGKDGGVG

| Structure (SMILES) | Kd |
| --- | --- |
| CCCS(=O)(=O)Nc1ccc(F)c(C(=O)c2c[nH]c3ncc(-c4ccc(Cl)cc4)cc23)c1F [VEMURAFENIB] | > 30 µM (inactive) |
| CC[C@@H]1C(=O)N(C)c2cnc(Nc3ccc(C(=O)N[C@H]4CC[C@H](N5CCN(CC6CC6)CC5)CC4)cc3OC)nc2N1C(C)C [VOLASERTIB] | > 30 µM (inactive) |
| CCn1c(=O)c(-c2cc[nH]n2)cc2c(C)nc(N)nc21 [VOXTALISIB] | > 30 µM (inactive) |
| O=C(Nc1ccc(-c2ccnc(Nc3ccc(N4CCOCC4)cc3)n2)cc1)C1CCCN1 (stereo not drawn) [XL-019] | > 30 µM (inactive) |

Biological target: Tyrosine-protein kinase FRK (Homo sapiens, UniProt P42685)
Sequence (P42685 whole entry): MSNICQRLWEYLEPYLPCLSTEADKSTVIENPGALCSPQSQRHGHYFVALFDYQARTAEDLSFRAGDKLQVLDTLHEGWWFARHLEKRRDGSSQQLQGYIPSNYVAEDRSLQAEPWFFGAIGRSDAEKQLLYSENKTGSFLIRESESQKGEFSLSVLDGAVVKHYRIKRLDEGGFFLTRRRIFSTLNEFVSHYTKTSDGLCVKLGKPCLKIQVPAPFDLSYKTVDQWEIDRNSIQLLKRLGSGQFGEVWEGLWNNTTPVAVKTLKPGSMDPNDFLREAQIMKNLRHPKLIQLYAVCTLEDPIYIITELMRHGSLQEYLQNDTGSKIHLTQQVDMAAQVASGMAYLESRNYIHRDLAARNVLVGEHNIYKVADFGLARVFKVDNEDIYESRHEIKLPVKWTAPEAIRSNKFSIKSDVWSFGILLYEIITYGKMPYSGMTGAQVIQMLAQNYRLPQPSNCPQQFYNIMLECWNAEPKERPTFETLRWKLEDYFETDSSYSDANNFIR

| Structure (SMILES) | Kd |
| --- | --- |
| CCCS(=O)(=O)Nc1ccc(F)c(C(=O)c2c[nH]c3ncc(-c4ccc(Cl)cc4)cc23)c1F [VEMURAFENIB] | > 30 µM (inactive) |
| CC[C@@H]1C(=O)N(C)c2cnc(Nc3ccc(C(=O)N[C@H]4CC[C@H](N5CCN(CC6CC6)CC5)CC4)cc3OC)nc2N1C(C)C [VOLASERTIB] | > 30 µM (inactive) |
| CCn1c(=O)c(-c2cc[nH]n2)cc2c(C)nc(N)nc21 [VOXTALISIB] | > 30 µM (inactive) |
| O=C(Nc1ccc(-c2ccnc(Nc3ccc(N4CCOCC4)cc3)n2)cc1)C1CCCN1 (stereo not drawn) [XL-019] | > 30 µM (inactive) |

Biological target: Serine/threonine-protein kinase N1 (Homo sapiens, UniProt Q16512)
Sequence (Q16512 whole entry): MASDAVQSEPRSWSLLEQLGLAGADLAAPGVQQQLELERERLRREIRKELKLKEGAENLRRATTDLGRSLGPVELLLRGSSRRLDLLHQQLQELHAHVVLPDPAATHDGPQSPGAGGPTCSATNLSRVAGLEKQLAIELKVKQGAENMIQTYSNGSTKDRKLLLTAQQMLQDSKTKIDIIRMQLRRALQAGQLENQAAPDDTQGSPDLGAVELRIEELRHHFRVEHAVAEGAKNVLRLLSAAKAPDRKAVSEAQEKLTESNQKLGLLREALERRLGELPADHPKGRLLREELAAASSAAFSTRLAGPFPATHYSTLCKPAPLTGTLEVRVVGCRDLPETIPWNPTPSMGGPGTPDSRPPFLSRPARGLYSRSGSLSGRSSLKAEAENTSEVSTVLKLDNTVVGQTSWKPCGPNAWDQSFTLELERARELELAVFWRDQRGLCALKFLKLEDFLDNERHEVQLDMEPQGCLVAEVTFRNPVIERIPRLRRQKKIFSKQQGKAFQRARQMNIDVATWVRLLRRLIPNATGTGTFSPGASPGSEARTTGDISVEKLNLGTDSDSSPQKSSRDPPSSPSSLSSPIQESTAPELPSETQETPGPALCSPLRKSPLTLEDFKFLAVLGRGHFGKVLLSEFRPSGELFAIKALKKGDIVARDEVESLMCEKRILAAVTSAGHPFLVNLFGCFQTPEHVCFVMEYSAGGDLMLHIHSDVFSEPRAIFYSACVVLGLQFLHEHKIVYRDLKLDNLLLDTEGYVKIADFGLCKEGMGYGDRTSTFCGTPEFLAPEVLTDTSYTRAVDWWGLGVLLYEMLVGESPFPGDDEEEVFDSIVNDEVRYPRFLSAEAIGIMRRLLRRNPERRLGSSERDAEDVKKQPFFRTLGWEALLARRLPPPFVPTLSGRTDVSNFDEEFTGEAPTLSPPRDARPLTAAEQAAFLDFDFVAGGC

| Structure (SMILES) | Kd |
| --- | --- |
| CCCS(=O)(=O)Nc1ccc(F)c(C(=O)c2c[nH]c3ncc(-c4ccc(Cl)cc4)cc23)c1F [VEMURAFENIB] | > 30 µM (inactive) |
| CC[C@@H]1C(=O)N(C)c2cnc(Nc3ccc(C(=O)N[C@H]4CC[C@H](N5CCN(CC6CC6)CC5)CC4)cc3OC)nc2N1C(C)C [VOLASERTIB] | > 30 µM (inactive) |
| CCn1c(=O)c(-c2cc[nH]n2)cc2c(C)nc(N)nc21 [VOXTALISIB] | > 30 µM (inactive) |
| O=C(Nc1ccc(-c2ccnc(Nc3ccc(N4CCOCC4)cc3)n2)cc1)C1CCCN1 (stereo not drawn) [XL-019] | > 30 µM (inactive) |

Biological target: T3, Septin-9 (Homo sapiens, UniProt Q9UHD8)
T3 sequence (Q9UHD8 whole entry): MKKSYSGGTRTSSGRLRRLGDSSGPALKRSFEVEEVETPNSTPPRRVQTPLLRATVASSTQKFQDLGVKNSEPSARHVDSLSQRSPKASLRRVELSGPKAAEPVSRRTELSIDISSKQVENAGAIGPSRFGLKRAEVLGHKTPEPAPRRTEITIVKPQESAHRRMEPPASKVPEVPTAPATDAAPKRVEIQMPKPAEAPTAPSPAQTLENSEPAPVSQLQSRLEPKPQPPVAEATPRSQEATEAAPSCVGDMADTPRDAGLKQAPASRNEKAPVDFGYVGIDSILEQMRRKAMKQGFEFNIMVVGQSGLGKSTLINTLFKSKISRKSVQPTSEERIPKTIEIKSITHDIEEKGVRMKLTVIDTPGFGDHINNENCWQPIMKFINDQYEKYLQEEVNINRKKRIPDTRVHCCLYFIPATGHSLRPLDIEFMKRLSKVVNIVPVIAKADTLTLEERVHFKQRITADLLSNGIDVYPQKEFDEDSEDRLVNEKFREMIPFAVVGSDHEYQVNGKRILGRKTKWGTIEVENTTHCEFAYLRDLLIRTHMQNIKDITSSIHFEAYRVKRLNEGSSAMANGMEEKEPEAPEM

| Structure (SMILES) | Kd |
| --- | --- |
| CCCS(=O)(=O)Nc1ccc(F)c(C(=O)c2c[nH]c3ncc(-c4ccc(Cl)cc4)cc23)c1F [VEMURAFENIB] | > 30 µM (inactive) |
| CC[C@@H]1C(=O)N(C)c2cnc(Nc3ccc(C(=O)N[C@H]4CC[C@H](N5CCN(CC6CC6)CC5)CC4)cc3OC)nc2N1C(C)C [VOLASERTIB] | > 30 µM (inactive) |
| CCn1c(=O)c(-c2cc[nH]n2)cc2c(C)nc(N)nc21 [VOXTALISIB] | > 30 µM (inactive) |
| O=C(Nc1ccc(-c2ccnc(Nc3ccc(N4CCOCC4)cc3)n2)cc1)C1CCCN1 (stereo not drawn) [XL-019] | > 30 µM (inactive) |

Biological target: NADH dehydrogenase [ubiquinone] 1 alpha subcomplex subunit 13 (Homo sapiens, UniProt Q9P0J0)
Sequence (Q9P0J0 whole entry, one chain of several): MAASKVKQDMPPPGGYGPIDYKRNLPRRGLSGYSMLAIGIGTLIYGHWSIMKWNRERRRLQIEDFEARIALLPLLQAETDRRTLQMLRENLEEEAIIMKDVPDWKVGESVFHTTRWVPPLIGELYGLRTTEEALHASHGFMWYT

| Structure (SMILES) | Kd |
| --- | --- |
| CCCS(=O)(=O)Nc1ccc(F)c(C(=O)c2c[nH]c3ncc(-c4ccc(Cl)cc4)cc23)c1F [VEMURAFENIB] | > 30 µM (inactive) |
| CC[C@@H]1C(=O)N(C)c2cnc(Nc3ccc(C(=O)N[C@H]4CC[C@H](N5CCN(CC6CC6)CC5)CC4)cc3OC)nc2N1C(C)C [VOLASERTIB] | > 30 µM (inactive) |
| CCn1c(=O)c(-c2cc[nH]n2)cc2c(C)nc(N)nc21 [VOXTALISIB] | > 30 µM (inactive) |
| O=C(Nc1ccc(-c2ccnc(Nc3ccc(N4CCOCC4)cc3)n2)cc1)C1CCCN1 (stereo not drawn) [XL-019] | > 30 µM (inactive) |

Biological target: Casein kinase I isoform epsilon (Homo sapiens, UniProt P49674)

| Structure (SMILES) | Kd |
| --- | --- |
| CCCS(=O)(=O)Nc1ccc(F)c(C(=O)c2c[nH]c3ncc(-c4ccc(Cl)cc4)cc23)c1F [VEMURAFENIB] | > 30 µM (inactive) |
| CC[C@@H]1C(=O)N(C)c2cnc(Nc3ccc(C(=O)N[C@H]4CC[C@H](N5CCN(CC6CC6)CC5)CC4)cc3OC)nc2N1C(C)C [VOLASERTIB] | > 30 µM (inactive) |
| CCn1c(=O)c(-c2cc[nH]n2)cc2c(C)nc(N)nc21 [VOXTALISIB] | > 30 µM (inactive) |
| O=C(Nc1ccc(-c2ccnc(Nc3ccc(N4CCOCC4)cc3)n2)cc1)C1CCCN1 (stereo not drawn) [XL-019] | > 30 µM (inactive) |

Biological target: Serine/threonine-protein kinase MRCK alpha (Homo sapiens, UniProt Q5VT25)
Sequence (Q5VT25 whole entry): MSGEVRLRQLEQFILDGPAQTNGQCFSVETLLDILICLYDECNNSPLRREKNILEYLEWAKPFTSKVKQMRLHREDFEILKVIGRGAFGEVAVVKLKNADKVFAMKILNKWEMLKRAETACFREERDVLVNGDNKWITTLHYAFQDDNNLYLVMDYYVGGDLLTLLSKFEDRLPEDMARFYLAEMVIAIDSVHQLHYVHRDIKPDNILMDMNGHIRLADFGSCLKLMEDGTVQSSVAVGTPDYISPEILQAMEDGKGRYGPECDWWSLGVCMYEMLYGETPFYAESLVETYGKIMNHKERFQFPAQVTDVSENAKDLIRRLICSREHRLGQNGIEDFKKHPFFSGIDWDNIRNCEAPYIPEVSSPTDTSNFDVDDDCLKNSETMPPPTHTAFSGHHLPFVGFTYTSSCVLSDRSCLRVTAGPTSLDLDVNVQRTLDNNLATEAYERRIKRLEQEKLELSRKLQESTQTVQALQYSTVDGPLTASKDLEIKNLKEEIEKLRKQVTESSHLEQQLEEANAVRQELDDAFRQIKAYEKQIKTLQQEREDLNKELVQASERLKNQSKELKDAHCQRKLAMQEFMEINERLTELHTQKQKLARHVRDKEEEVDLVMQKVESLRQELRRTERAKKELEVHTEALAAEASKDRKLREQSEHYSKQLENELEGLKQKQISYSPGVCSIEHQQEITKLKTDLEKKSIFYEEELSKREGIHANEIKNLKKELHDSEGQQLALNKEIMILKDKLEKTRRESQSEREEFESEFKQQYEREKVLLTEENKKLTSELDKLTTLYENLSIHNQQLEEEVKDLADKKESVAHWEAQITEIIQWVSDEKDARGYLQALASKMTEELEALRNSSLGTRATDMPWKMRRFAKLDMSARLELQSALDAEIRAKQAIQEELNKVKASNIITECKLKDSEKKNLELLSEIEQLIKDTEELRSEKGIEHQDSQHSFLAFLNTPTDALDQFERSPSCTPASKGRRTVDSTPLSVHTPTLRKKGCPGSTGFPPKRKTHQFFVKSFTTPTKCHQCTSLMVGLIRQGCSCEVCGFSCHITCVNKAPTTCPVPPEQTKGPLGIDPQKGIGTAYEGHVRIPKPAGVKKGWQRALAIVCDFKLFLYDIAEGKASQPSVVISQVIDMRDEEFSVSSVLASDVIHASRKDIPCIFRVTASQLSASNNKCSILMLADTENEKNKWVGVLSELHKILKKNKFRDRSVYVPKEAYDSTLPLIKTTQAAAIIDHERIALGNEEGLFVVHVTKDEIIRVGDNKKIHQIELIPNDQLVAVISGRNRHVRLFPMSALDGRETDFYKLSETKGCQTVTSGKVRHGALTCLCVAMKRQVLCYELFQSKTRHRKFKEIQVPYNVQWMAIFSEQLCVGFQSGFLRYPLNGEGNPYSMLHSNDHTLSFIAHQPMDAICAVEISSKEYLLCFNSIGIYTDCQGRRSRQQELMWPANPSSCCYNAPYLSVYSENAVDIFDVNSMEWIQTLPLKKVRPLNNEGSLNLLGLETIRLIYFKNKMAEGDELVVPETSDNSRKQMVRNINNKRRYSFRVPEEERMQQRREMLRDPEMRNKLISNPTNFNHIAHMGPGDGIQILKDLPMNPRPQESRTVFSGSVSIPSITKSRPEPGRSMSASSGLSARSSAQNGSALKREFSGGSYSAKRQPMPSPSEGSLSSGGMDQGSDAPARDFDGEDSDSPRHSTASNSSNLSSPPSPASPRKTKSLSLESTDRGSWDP

| Structure (SMILES) | Kd |
| --- | --- |
| CCCS(=O)(=O)Nc1ccc(F)c(C(=O)c2c[nH]c3ncc(-c4ccc(Cl)cc4)cc23)c1F [VEMURAFENIB] | > 30 µM (inactive) |
| CC[C@@H]1C(=O)N(C)c2cnc(Nc3ccc(C(=O)N[C@H]4CC[C@H](N5CCN(CC6CC6)CC5)CC4)cc3OC)nc2N1C(C)C [VOLASERTIB] | > 30 µM (inactive) |
| CCn1c(=O)c(-c2cc[nH]n2)cc2c(C)nc(N)nc21 [VOXTALISIB] | > 30 µM (inactive) |
| O=C(Nc1ccc(-c2ccnc(Nc3ccc(N4CCOCC4)cc3)n2)cc1)C1CCCN1 (stereo not drawn) [XL-019] | > 30 µM (inactive) |

Biological target: Elongation factor Tu, mitochondrial (Homo sapiens, UniProt P49411)

| Structure (SMILES) | Kd |
| --- | --- |
| CCCS(=O)(=O)Nc1ccc(F)c(C(=O)c2c[nH]c3ncc(-c4ccc(Cl)cc4)cc23)c1F [VEMURAFENIB] | > 30 µM (inactive) |
| CC[C@@H]1C(=O)N(C)c2cnc(Nc3ccc(C(=O)N[C@H]4CC[C@H](N5CCN(CC6CC6)CC5)CC4)cc3OC)nc2N1C(C)C [VOLASERTIB] | > 30 µM (inactive) |
| CCn1c(=O)c(-c2cc[nH]n2)cc2c(C)nc(N)nc21 [VOXTALISIB] | > 30 µM (inactive) |
| O=C(Nc1ccc(-c2ccnc(Nc3ccc(N4CCOCC4)cc3)n2)cc1)C1CCCN1 (stereo not drawn) [XL-019] | > 30 µM (inactive) |

Biological target: Dual specificity mitogen-activated protein kinase kinase 1 (Homo sapiens, UniProt Q02750)
Sequence (Q02750 whole entry): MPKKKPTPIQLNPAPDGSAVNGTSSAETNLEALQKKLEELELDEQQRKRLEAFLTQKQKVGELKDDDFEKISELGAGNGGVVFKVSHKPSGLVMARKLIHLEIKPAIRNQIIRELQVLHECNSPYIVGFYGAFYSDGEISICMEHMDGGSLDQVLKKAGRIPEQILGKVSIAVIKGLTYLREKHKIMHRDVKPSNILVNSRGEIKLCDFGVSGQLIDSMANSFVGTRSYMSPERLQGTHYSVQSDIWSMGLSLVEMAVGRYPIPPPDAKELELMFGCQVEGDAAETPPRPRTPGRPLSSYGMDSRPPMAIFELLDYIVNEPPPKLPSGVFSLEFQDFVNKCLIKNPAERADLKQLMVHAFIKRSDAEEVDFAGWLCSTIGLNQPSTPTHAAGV

| Structure (SMILES) | Kd |
| --- | --- |
| CCCS(=O)(=O)Nc1ccc(F)c(C(=O)c2c[nH]c3ncc(-c4ccc(Cl)cc4)cc23)c1F [VEMURAFENIB] | > 30 µM (inactive) |
| CC[C@@H]1C(=O)N(C)c2cnc(Nc3ccc(C(=O)N[C@H]4CC[C@H](N5CCN(CC6CC6)CC5)CC4)cc3OC)nc2N1C(C)C [VOLASERTIB] | > 30 µM (inactive) |
| CCn1c(=O)c(-c2cc[nH]n2)cc2c(C)nc(N)nc21 [VOXTALISIB] | > 30 µM (inactive) |
| O=C(Nc1ccc(-c2ccnc(Nc3ccc(N4CCOCC4)cc3)n2)cc1)C1CCCN1 (stereo not drawn) [XL-019] | > 30 µM (inactive) |

Biological target: Mitogen-activated protein kinase 9 (Homo sapiens, UniProt P45984)
Sequence (P45984 whole entry): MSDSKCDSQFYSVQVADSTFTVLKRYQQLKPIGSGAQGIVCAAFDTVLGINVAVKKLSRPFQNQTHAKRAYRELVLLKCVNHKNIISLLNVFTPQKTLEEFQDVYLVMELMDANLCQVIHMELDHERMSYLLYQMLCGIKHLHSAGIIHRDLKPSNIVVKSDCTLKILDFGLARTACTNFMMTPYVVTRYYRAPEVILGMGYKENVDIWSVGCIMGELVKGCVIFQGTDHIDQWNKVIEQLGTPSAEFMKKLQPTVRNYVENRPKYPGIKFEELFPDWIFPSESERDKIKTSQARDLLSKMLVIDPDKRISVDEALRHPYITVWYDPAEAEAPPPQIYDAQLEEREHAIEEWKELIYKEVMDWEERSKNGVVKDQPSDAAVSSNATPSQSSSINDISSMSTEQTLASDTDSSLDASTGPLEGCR

| Structure (SMILES) | Kd |
| --- | --- |
| CCCS(=O)(=O)Nc1ccc(F)c(C(=O)c2c[nH]c3ncc(-c4ccc(Cl)cc4)cc23)c1F [VEMURAFENIB] | > 30 µM (inactive) |
| CC[C@@H]1C(=O)N(C)c2cnc(Nc3ccc(C(=O)N[C@H]4CC[C@H](N5CCN(CC6CC6)CC5)CC4)cc3OC)nc2N1C(C)C [VOLASERTIB] | > 30 µM (inactive) |
| CCn1c(=O)c(-c2cc[nH]n2)cc2c(C)nc(N)nc21 [VOXTALISIB] | > 30 µM (inactive) |
| O=C(Nc1ccc(-c2ccnc(Nc3ccc(N4CCOCC4)cc3)n2)cc1)C1CCCN1 (stereo not drawn) [XL-019] | > 30 µM (inactive) |
